Test results as given in publication PMC12703428, “Development of Granzyme A Turn‐ON Fluorescent Activity‐Based Probes” (Chembiochem, 2025).

Tested on: MDA‐MB‐231 cells co‐cultured with NK‐92 cells
Experiment: GzmA transfer in NK-92 / MDA-MB-231 coculture
Type: cell-based, human
Settings: 5x10^5 MDA-MB-231 with 2x10^6 NK-92 cells, probe 5 μM, 1-6 h, flow cytometry and gel-based analyses
Protocol: Figure 4 Characterization of qABPs in native proteomes. A) Labeling of GzmA by 5 and 6 in lysates of various cell lines (1 h, 37 °C). B) Stability of 5 and 6 in buffer and cell media (11 h, 37 °C). The hydrolysis of probes was measured by monitoring the production of Cy5 fluorescence signal over time. […] C) Labeling of GzmA by probes 3 –6 in NK‐92 cells (2 h, 37 °C). D) Flow cytometry analysis of protein labeling in NK‐92 cells by 3 –5. […] E) Flow cytometry analysis of concentration‐dependent GzmA labeling in NK‐92 cells and S/N of 5 (5 μM, 2 h, 37 °C). […]
Supplementary Figure 5. […] Protein samples were analyzed by SDS-PAGE and in-gel fluorescence scanning for Cy5 signal. […]
Conditions for Figure 4C: Various concentrations of probes 3-6 were incubated with 1x10^6 NK-92 cells for 2 h at 37 °C in a humidified incubator. […] Lysates were collected, protein concentration was measured with PIERCE BCA protein assay and samples were analyzed with in-gel fluorescence and GzmA western blotting. […]
All flow cytometry data were collected on BD LSRFortessa and FACSymphony A5 Cell Analyzers and analyzed with FlowJo software. […] Fixed/Permeabilized cells were then resuspended in appropriate amounts of cell staining buffer (BioLegend #420201) and analyzed with flow cytometry and FlowJo software. […]

Substance: IGNR [compound 5]
- Detection of GzmA transfer from NK-92 cells to MDA-MB-231 cells: able to detect GzmA transfer
